Measurements published in PubChem BioAssay AID977613 (Broad Institute, 2014).
Calls of active or inactive are those of the source. No rule for the calls is given here.

The molecules below were run on Broad 7084-01 inhibitor HTS, set 2 (assay: single-concentration hits, screen 7084 set 2 (AID 977613);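 also: host cells are infected with parasite promastigotes that become internalized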).

SMILES	active concentration
O=C(C[C@@H]1CC[C@H]2[C@@H](COC[C@@H](O)CN2C(=O)Nc2ccc(C(F)(F)F)cc2)O1)NCC1CC1	> 10 µM (inactive)
COC(=O)[C@H]1[C@H](CO)[C@H]2Cn3c(ccc(-c4ccccc4F)c3=O)[C@@H]1N2	> 10 µM (inactive)
O=C(C[C@@H]1CC[C@@H]2[C@H](COC[C@H](O)CN2C(=O)c2ccccc2)O1)Nc1ccc(-c2ccccc2)cc1	> 10 µM (inactive)
Cc1cccc(S(=O)(=O)N2C[C@H](O)COC[C@@H]3O[C@@H](CC(=O)Nc4ccccc4)CC[C@H]32)c1	> 10 µM (inactive)
COc1ccc2c3c([nH]c2c1)[C@@H](CO)N(Cc1ccccc1OC)CC31CN(C(C)=O)C1	> 10 µM (inactive)
COc1ccc2c3c([nH]c2c1)[C@H](CO)N(C(=O)Nc1ccc(F)cc1)CC31CCN(CC2CCOCC2)CC1	> 10 µM (inactive)
O=C(Nc1ccccc1)N1CC(=O)N2[C@H](CO)[C@@H](c3ccc(C#CC4CCCCC4)cc3)[C@@H]2C1	> 10 µM (inactive)
Cc1noc(C)c1NC(=O)N1C[C@H](O)COC[C@H]2O[C@H](CC(=O)NCC3CCCCC3)CC[C@@H]21	> 10 µM (inactive)
OC[C@@H]1Nc2ccc(-c3ccccc3)cc2[C@H]2[C@@H]1CCN2Cc1ccccc1F	> 10 µM (inactive)
O=C(O)[C@H]1[C@H](CO)[C@H]2Cn3c(ccc(-c4ccc(F)cc4)c3=O)[C@@H]1N2CC1CCCCC1	> 10 µM (inactive)
COc1ccc(CN2[C@@H]3CNc4ccccc4[C@@H]3[C@@H]2CO)cc1	> 10 µM (inactive)
COc1ccccc1C(=O)Nc1ccc2c(c1)C(=O)N(C)[C@H]1CC[C@@H](CC(=O)NCCc3ccncc3)O[C@H]1CO2	> 10 µM (inactive)
CCS(=O)(=O)Nc1ccc2c(c1)C(=O)N(C)[C@@H]1CC[C@H](CC(=O)NCCOC)O[C@H]1CO2	> 10 µM (inactive)
COc1ccc2c3c([nH]c2c1)[C@H](CO)N(S(=O)(=O)c1ccc(C)cc1)CC31CCN(Cc2nccs2)CC1	> 10 µM (inactive)
CN1c2ccc(Br)cc2[C@H]2[C@H](CCN2C(=O)Cc2ccccc2)[C@H]1CO	> 10 µM (inactive)
O=C(c1ccccn1)N1CC[C@@H]2[C@@H](CO)Nc3ccc(Br)cc3[C@@H]21	> 10 µM (inactive)
COc1ccc(-c2ccc3c(c2)[C@@H]2[C@@H](CCN2C(=O)CN2CCOCC2)[C@H](CO)N3)cc1	> 10 µM (inactive)
COc1ccccc1NC(=O)N1CC(=O)N2[C@H](CO)[C@H](c3ccc(-c4cccc(C)c4)cc3)[C@@H]2C1	> 10 µM (inactive)
O=C(C1CCC1)N1CC2(C1)[C@@H](c1ccccc1)[C@@H](CO)N2C(=O)c1ccccn1	< 10 µM
COc1ccc(-c2ccccc2[C@@H]2[C@@H](CO)N(C(=O)NC(C)C)[C@H]2C#N)cc1	> 10 µM (inactive)
O=S(=O)(c1ccccc1)N1CCCCN2[C@H](CO)[C@@H](c3ccc(C#CC4CCCC4)cc3)[C@H]2C1	> 10 µM (inactive)
N#C[C@H]1[C@H](c2ccccc2-c2cccc(F)c2)[C@@H](CO)N1C(=O)CN1CCOCC1	> 10 µM (inactive)
CN1c2ccc(-c3cccc(F)c3)cc2[C@@H]2[C@@H](CCN2C(=O)c2ccccc2F)[C@H]1CO	> 10 µM (inactive)
COc1ccccc1-c1ccccc1[C@@H]1[C@H](C#N)N(C(=O)C2CCOCC2)[C@H]1CO	> 10 µM (inactive)
CCNC(=O)C[C@H]1CC[C@@H]2[C@H](COC[C@H](O)CN2C(=O)C2CC2)O1	> 10 µM (inactive)
O=C(C[C@@H]1CC[C@H]2[C@@H](COC[C@H](O)CN2Cc2ccc(Cl)cc2)O1)NCc1ccccc1Cl	> 10 µM (inactive)
CN1c2ccc(C#Cc3cccnc3)cc2[C@H]2[C@H](CCN2S(=O)(=O)c2ccccc2F)[C@@H]1CO	> 10 µM (inactive)
Cc1ccccc1-c1ccc([C@H]2[C@H]3CN(S(=O)(=O)Cc4ccccc4)CCCCN3[C@H]2CO)cc1	> 10 µM (inactive)
